Source: US20070224128A1, “Drug adherence monitoring system” (priority 2006, published 2007)
Converted amounts (≈) assume the structure as drawn. Structures can show the parent of a compound that is named as a salt. Where two headings read alike, the source gives them in different places.

Columns and labels:
[1] = biological target: human recombinant CYP2D6 (Homo sapiens, UniProt P10635)
Description: CYP 2D6 inhibition assays were performed by Novascreen (Hanover, Md.). In brief, after 100 μL solution containing the compounds (dextromethorphan or trifluoroethyldextrorphan, concentration ranging from 10^−10 M to 10^−5M) and mixed 50 μL cofactor solution were preincubated in 100 mM potassium phosphate buffer (pH=7.4) for 10 min at 37° C., 50 μL of freshly mixed solution of human recombinant CYP2D6 (1.5 pmole) and AMMC (1.5 μM) was added to each well. The final cofactor concentrations were 1.3 mM NADP^+, 3.3 mM glucose-6-phosphate, 0.4 U/ml glucose-6-phosphate dehydrogenase. Samples were incubated for 45 minutes and the reaction was stopped with 75 μL Tris/acetonitrile stop solution. Quinidine was used as the reference compound. The AMMC metabolite, AMHC, was measured using a fluorescent plate scanner at an excitation wavelength of 390 nm and emission wavelength of 460 nm.

[2] = test system: human liver microsomes; assay: Human liver microsomes assay: trifluoroacetaldehyde captured from headspace, GC/MS; conditions: 2 mg/mL human liver microsome, 1 mM trifluoroethyldextrorphan, 1.5 hours, determined as DNPH derivative
Description: Microsomal incubations were conducted in 1.5 mL polypropylene vials containing 2 mg/mL human liver microsome, 5.2 mM NADP^+, 13.2 mM glucose-6-phosphate, 1.6 U/ml glucose-6-phosphate dehydrogenase, 6.6 mM magnesium chloride and 1 mM trifluoroethyldextrorphan in 100 mM potassium phosphate buffer (pH 7.5). The total volume was 1.5 mL.
LpDNPH S10 cartridges were employed to collect trifluoroacetaldehyde produced from incubation mixture for 1.5 hours through suction generated by a 5 mL syringe. The incubations were performed in triplicate. […]
A Thermo Finnigan Polaris Q Mass Spectrometer (MS) system (consists of a Polaris Q MS, a TRACE GC, and the Xcalibur Data System) was used. […] Negative chemical ionization (NCI) mode was used for identification and quantitation of trifluoroacetaldehyde 2,4-dinitrophenylhydrazone. […]
[^15N4]trifluoroacetaldehyde 2,4-dinitrophenylhydrazone was used as an internal standard for the determination of trifluoroacetaldehyde as its DNPH derivative. Quantitation was performed by selected ion monitoring (SIM) of most intensive fragment ions trifluoroacetaldehyde 2,4-dinitrophenylhydrazone (m/z 182) against the internal standard [^15N4]trifluoroacetaldehyde 2,4-dinitrophenylhydrazone (m/z 185). […]
The fragment ions m/z 182 and 185 were monitored for quantitation. […]

[3] = cited from earlier work
[4] = water at 25° C.; cited from earlier work
[5] = test system: rat; conditions: 4H; cited from earlier work
[6] = test system: rat; conditions: cited from earlier work

human recombinant CYP2D6, sequence (P10635 whole entry): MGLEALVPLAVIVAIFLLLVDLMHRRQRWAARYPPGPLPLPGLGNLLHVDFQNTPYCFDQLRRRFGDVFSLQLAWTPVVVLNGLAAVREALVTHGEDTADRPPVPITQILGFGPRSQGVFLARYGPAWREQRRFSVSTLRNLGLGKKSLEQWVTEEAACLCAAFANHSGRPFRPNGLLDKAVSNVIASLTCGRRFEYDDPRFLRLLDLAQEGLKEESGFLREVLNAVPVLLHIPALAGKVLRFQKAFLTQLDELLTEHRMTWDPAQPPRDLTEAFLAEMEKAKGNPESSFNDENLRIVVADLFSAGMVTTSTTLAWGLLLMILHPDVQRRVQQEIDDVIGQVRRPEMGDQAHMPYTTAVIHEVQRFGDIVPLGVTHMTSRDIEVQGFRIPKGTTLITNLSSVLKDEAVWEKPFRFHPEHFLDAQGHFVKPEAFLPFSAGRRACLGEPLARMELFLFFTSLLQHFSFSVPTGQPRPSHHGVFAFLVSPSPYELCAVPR

CN1CC[C@@]23CCCC[C@@H]2[C@@H]1Cc1ccc(OCC(F)(F)F)cc13 [trifluoroethyldextrorphan, O-trifluoroethyldextrorphan]
potency to inhibit AMMC metabolism ([1]; human recombinant CYP2D6 1.5 pmole, AMMC 1.5 μM, compounds 10^−10 M to 10^−5 M, 45 minutes, FIG. 5): similar
trifluoroacetaldehyde captured from the headspace of the microsomal incubation mixture [2]: 120 ng

OC(C(F)(F)F)C(F)(F)F [R′4]
VP ([3]; at 20° C.): 102 torr
VP ([3]; at 25° C.): 159 torr
Solubility [4]: 7770 mg/L (≈ 46.2 mM)
LC50 Inhalation rat [5]: 1974 ppm/4H
LD50 Oral rat [6]: 1040 to 1500 mg/kg

OC(C(F)(F)F)(C(F)(F)F)C(F)(F)F [R′3]
VP ([3]; at 20° C.): 268 torr
Solubility [4]: 39,200 mg/L

COc1ccc2c(c1)[C@]13CCCC[C@@H]1[C@H](C2)N(C)CC3 [dextromethorphan, Dextromethorphan hydrobromide, reference compound]
potency to inhibit AMMC metabolism [1]: similar
